Consider 14 molecules from patent US10245264B2, “Substituted imidazo[1,2-a]pyrazines as soluble guanylate cyclase activators” (Merck Sharp & Dohme Corp., priority 2015, dated 2019).

The target in this assay is T1, sGC α1/β1 heterodimer stably expressed in CHO-K1 cells (CHO-K1/sGC) (Homo sapiens, UniProt Q02108+Q02153).
T1 construct: expressed in transfected cells
T1 sequence (Q02108 1-690): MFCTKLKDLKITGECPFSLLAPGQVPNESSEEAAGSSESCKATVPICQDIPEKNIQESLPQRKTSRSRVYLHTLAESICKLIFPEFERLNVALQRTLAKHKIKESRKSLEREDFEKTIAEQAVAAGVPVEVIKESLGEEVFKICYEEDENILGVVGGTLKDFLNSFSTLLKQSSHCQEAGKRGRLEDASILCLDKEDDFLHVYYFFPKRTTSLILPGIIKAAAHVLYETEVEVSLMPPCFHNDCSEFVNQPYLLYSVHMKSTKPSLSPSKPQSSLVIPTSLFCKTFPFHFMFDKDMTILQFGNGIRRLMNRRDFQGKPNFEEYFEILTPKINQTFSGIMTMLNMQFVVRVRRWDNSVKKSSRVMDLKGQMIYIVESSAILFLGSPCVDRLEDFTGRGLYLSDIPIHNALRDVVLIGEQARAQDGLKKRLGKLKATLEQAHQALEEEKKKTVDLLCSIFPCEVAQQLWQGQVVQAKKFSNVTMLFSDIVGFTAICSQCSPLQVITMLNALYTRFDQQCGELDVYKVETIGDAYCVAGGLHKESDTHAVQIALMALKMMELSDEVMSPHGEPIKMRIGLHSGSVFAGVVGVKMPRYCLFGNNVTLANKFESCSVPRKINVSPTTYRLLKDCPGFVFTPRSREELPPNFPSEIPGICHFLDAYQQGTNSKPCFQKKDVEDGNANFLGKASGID
T1 sequence (Q02153 1-619): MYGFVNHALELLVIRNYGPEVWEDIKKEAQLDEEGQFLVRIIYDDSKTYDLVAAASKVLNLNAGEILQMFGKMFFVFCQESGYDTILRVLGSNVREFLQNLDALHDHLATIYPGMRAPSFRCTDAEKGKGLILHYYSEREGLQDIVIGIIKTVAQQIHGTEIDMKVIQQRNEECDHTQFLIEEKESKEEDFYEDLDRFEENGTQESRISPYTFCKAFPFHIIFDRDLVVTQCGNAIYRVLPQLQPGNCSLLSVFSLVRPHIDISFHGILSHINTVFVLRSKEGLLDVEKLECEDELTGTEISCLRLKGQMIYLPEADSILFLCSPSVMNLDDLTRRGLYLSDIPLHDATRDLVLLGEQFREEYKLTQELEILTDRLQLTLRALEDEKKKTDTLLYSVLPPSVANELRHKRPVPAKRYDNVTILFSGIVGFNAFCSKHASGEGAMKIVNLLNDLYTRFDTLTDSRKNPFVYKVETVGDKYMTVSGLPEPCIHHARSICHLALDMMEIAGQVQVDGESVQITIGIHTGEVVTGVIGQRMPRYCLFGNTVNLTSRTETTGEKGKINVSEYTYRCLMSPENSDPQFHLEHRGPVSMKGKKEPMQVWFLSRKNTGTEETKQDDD
The experiment in a line: Cell-based sGC functional assay (CASA assay), cGMP generation by HTRF. The following applies: for EC50: CHO-K1/sGC cells, 1 hr at 37° C., 4P fit, presence or absence of DETA-NO not given, read-out: IP (nM) (inflection point); for % Act. (percent activation relative to Compound A): maximum cGMP production of Compound A set to 100% activation; for Emax: CHO-K1, maximum cGMP production of Compound A set to 100% activation, read-out: % Act. (percent activation relative to Compound A). The source says: Biological Assay 1: Cell-Based sGC Functional Assay (CASA Assay) Rationale
sGC is a heme-containing enzyme that converts GTP to secondary messenger cGMP. Increases in cGMP levels affect several physiological processes including vasorelaxation through multiple downstream pathways. […] Heme-dependent activators (HDAs) preferentially activate sGC containing a ferrous heme group. To determine the effect of sGC activators on enzyme activity, the CASA assay was developed to monitor the generation of cGMP in a cell line that stably expresses the heterodimeric sGC protein.
A CHO-K1 cell line stably expressing the sGC α1/β1 heterodimer was generated using a standard transfection protocol. CHO-K1 cells were transfected with plasmids pIREShyghsGCα1 and pIRESneo-hsGCβ1 simultaneously using FUGENE reagent. Clones that stably express both subunits were selected with hygromycin and neomycin for ˜2 weeks. Clone #7 was chosen for the assay and was designated CHO-K1/sGC. CHO-K1/sGC cells were maintained in F-K12 medium containing 10% heat-inactivated Fetal Bovine Serum (FBS), 100 μg/mL penicillin/streptomycin, 0.5 mg/mL hygromycin and 0.25 mg/mL G418. The cells were then cryopreserved in LN2. On the day of the assay, cells were thawed and resuspended in EBSS Assay Buffer (Sigma, E3024) supplemented with 5 mM MgCl2, 10 mM HEPES (4-(2-hydroxyethyl)piperazine-1-ethanesulfonic acid) and 0.05% BSA (bovine serum albumin) (EAB) and cell density was then adjusted to 4×10^5/mL with EAB. IBMX (3-isobutyl-1-methylxanthin, 0.5 mM) was added to inhibit degradation of cGMP. Compounds were diluted from DMSO stock solutions and added to the assay at a final DMSO concentration of 2.5%. Cells were incubated with compounds in the presence and absence of 1 μM of Diethylenetriamine/nitric oxide adduct (DETA-NO; Sigma, 17018) for 1 hr at 37° C. At the end of the incubation period, the reaction was terminated and the cells were lysed with the detection reagents from Cisbio Kits. The level of intracellular cGMP was determined using an HTRF-based assay kit (CisBio, 62GM2PEC), which detects the displacement of a fluorescence labeled cGMP from its specific antibody. The cGMP produced by test compounds was directly compared to the maximum cGMP production (this value was set to equal 100% activation.) of the published sGC-HDA Compound A:
[drawing 101] (Example 1 in WO 2010/065275, published Jun. 10, 2010). The test compounds' activities were then expressed as a percentage of Compound A, the standard in every experiment. This percent activation was calculated either in the presence or absence of DETA-NO which was then plotted. IP and maximum fold induction was derived using ADA analysis software for 4P fit.
The compounds in the Examples of the instant invention had inflection points (IP) less than or equal to 10 μM and many had IPs less than or equal to about 1 μM.

In the case of `CC1(c2ccc(Cl)cc2)C(=O)Nc2nc(-c3cn4ccnc4c(OCC4CCCCO4)n3)nc(N)c21` (single isomer, unassigned; slow eluting) [Example 68B, 4-amino-5-(4-chlorophenyl)-5-methyl-2-[8-(tetrahydro-2H-pyran-2-ylmethoxy)imidazo[1,2-a]pyrazin-6-yl]-5,7-dihydro-6H-pyrrolo [2,3-d] pyrimidin-6-one (slow eluting)], the EC50 was 633 nM and the “% Act. (percent activation relative to Compound A)” value stood at 85%.

Consider `CC1(c2ccc(Cl)cc2)C(=O)Nc2nc(-c3cn4ccnc4c(NCC4CCCCO4)n3)nc(N)c21` (single isomer, unassigned; slow eluting) [Example 71B, 4-amino-5-(4-chlorophenyl)-5-methyl-2-{8-[(tetrahydro-2H-pyran-2-ylmethyl)amino]imidazo [1,2-a]pyrazin-6-yl}-5,7-dihydro-6H-pyrrolo[2,3-d] pyrimidin-6-one (slow eluting)], for which the EC50 is 143 nM and the “% Act. (percent activation relative to Compound A)” value is given as 95%.

In the case of `CC1(c2ccc(Cl)cc2)C(=O)Nc2nc(-c3cn4ccnc4c(NCC4CCCOC4)n3)nc(N)c21` (single isomer, unassigned; slow eluting) [Example 72B, 4-amino-5-(4-chlorophenyl)-5-methyl-2-{8-[(tetrahydro-2H-pyran-3-ylmethyl)amino]imidazo [1,2-a]pyrazin-6-yl}-5,7-dihydro-6H-pyrrolo[2,3-d] pyrimidin-6-one (slow eluting)], the EC50 is 412 nM and the “% Act. (percent activation relative to Compound A)” value amounted to 94%.

In the case of `CC1(c2ccccc2)C(=O)Nc2nc(-c3cn4ccnc4c(OCC(F)(F)C(F)(F)F)n3)nc(N)c21` (stereo not shown) [Example 3B, 4-amino-5-methyl-2-[8-(2,2,3,3,3-pentafluoropropoxy)imidazo[1,2-a]pyrazin-6-yl]-5-phenyl-5,7-dihydro-6H-pyrrolo [2,3-d]pyrimidin-6-one], the Emax worked out at 97% and the EC50 was 416 nM.

For `CC1(c2ccccc2)C(=O)Nc2nc(-c3cn4ccnc4c(Oc4ccccc4F)n3)nc(N)c21` (stereo not shown) [Example 5B, 4-amino-2-[8-(2-fluorophenoxy)imidazo[1,2-a]pyrazin-6-yl]-5-methyl-5-phenyl-5,7-dihydro-6H-pyrrolo[2,3-d] pyrimidin-6-one], the Emax came out at 107% and the EC50 was 80 nM.

With `CC1(c2ccc(F)cc2)C(=O)Nc2nc(-c3cn4ccnc4c(Oc4c(F)ccc(F)c4F)n3)nc(N)c21` (stereo not shown) [Example 6A, 4-amino-5-(4-fluorophenyl)-5-methyl-2-[8-(2,3,6-trifluorophenoxy)imidazo[1,2-a]pyrazin-6-yl]-5,7-dihydro-6H-pyrrolo[2,3-d] pyrimidin-6-one], the Emax came out at 89% and the EC50 stood at 499 nM.

In the case of `CC1(c2ccccc2)C(=O)Nc2nc(-c3cn4ccnc4c(Oc4c(F)ccc(F)c4F)n3)nc(N)c21` (stereo not shown) [Example 7B, 4-amino-5-methyl-5-phenyl-2-[8-(2,3,6-trifluorophenoxy)imidazo[1,2-a]pyrazin-6-yl]-5,7-dihydro-6H-pyrrolo[2,3-d] pyrimidin-6-one], the Emax was 112% and the EC50 was 1020 nM.

Consider `CC1(c2ccccc2)C(=O)Nc2nc(-c3cn4ccnc4c(Oc4cccc(F)c4)n3)nc(N)c21` (stereo not shown) [Example 8B, 4-amino-2-[8-(3-fluorophenoxy)imidazo[1,2-a]pyrazin-6-yl]-5-methyl-5-phenyl-5,7-dihydro-6H-pyrrolo[2,3-d] pyrimidin-6-one], for which the Emax was 110% and the EC50 turned out to be 22 nM.

In the case of `CC1(c2ccc(F)cc2)C(=O)Nc2nc(-c3cn4ccnc4c(Oc4ccccc4)n3)nc(N)c21` (stereo not shown) [Example 9A, 4-amino-5-(4-fluorophenyl)-5-methyl-2-(8-phenoxyimidazo [1,2-a]pyrazin-6-yl)-5,7-dihydro-6H-pyrrolo[2,3-d] pyrimidin-6-one], the Emax was found to be 124% and the EC50 came to 28 nM.

Regarding `CC1(c2ccccc2)C(=O)Nc2nc(-c3cn4ccnc4c(Oc4ccc(F)c(F)c4F)n3)nc(N)c21` (stereo not shown) [Example 11B, 4-amino-5-methyl-5-phenyl-2-[8-(2,3,4-trifluoro-phenoxy)imidazo [1,2-a]pyrazin-6-yl]-5,7-dihydro-6H-pyrrolo[2,3-d] pyrimidin-6-one], the Emax was 104% and the EC50 stood at 138 nM.

In the case of `CC1(c2ccccc2)C(=O)Nc2nc(-c3cn4ccnc4c(Oc4cc(F)cc(F)c4F)n3)nc(N)c21` (stereo not shown) [Example 12B, 4-amino-5-methyl-5-phenyl-2-[8-(2,3,5-trifluoro-phenoxy)imidazo [1,2-a]pyrazin-6-yl]-5,7-dihydro-6H-pyrrolo[2,3-d] pyrimidin-6-one], the Emax came out at 99% and the EC50 turned out to be 47 nM.

In the case of `CC1(c2ccccc2)C(=O)Nc2nc(-c3cn4ccnc4c(Oc4cccc(F)c4F)n3)nc(N)c21` (stereo not shown) [Example 13B, 4-amino-2-[8-(2,3-difluoro-phenoxy)imidazo [1,2-a]pyrazin-6-yl]-5-methyl-5-phenyl-5,7-dihydro-6H-pyrrolo[2,3-d] pyrimidin-6-one], the Emax was found to be 109% and the EC50 was 14 nM.

As for `Nc1nc(-c2cn3ccnc3c(OCC(F)(F)C(F)(F)F)n2)nc2c1C(c1ccc(F)cc1)(C1CC1)C(=O)N2` (stereo not shown) [Example 14B, 4-amino-5-cyclopropyl-5-(4-fluorophenyl)-2-[8-(2,2,3,3,3-pentafluoropropoxy)imidazo[1,2-a]pyrazin-6-yl]-5,7-dihydro-6H-pyrrolo [2,3-d]pyrimidin-6-one], the Emax is 96% and the EC50 is 534 nM.

`CC1(c2ccc(F)cc2)C(=O)Nc2nc(-c3cn4ccnc4c(Oc4cccc(F)c4F)n3)nc(N)c21` (stereo not shown) [Example 15A, 4-amino-2-[8-(2,3-difluorophenoxy)imidazo[1,2-a]pyrazin-6-yl]-5-(4-fluorophenyl)-5-methyl-5,7-dihydro-6H-pyrrolo[2,3-d] pyrimidin-6-one]: the Emax came out at 104% and the EC50 amounted to 23 nM.
